In patent US20220402862A1 (Intellia Therapeutics, Inc., priority 2019, published 2022):
“And” between values parts separate entries of the source, which are not always exact repeats. Equal values may be shown once.

Columns and labels:
Assay type in all cases: physicochemical
[1] = Dynamic light scattering of LNPs: Z-average diameter, number average diameter, PDI
In short: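 LNP samples were diluted in PBS and measured by DLS to give intensity-based Z-average diameter, number average diameter and polydispersity index. PDI describes size spread around the mean, with zero meaning a uniform population.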

[2] = RNA encapsulation efficiency of LNPs (Ribogreen fluorescence assay); settings: for % E (encapsulation efficiency): LNP with G534 sgRNA and Cas9 mRNA, sg:mRNA 1:2, experiment 109; for Encapsulation (%) / % E: LNP
In short: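 LNPs were diluted in 1× TE with 0.2% Triton X-100 (total RNA) or without it (free RNA), stained with RiboGreen for ~10 min at room temperature in the dark, and read at Ex 488/Em 525 nm against standard curves of the starting RNA. Encapsulation efficiency = (Total − Free)/Total.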

[3] = pKa measurement of unformulated amine lipid (fluorescence, method of Jayaraman et al.); settings: 100 μM in 0.1 M phosphate buffer, pH 2.0-12.0
Procedure: The pKa of each amine lipid was determined according to the method in Jayaraman, et al. (Angewandte Chemie, 2012) with the following adaptations. […] Lipid was diluted to 100 μM in 0.1 M phosphate buffer (Boston Bioproducts) where the pH ranged from 2.0-12.0. Fluorescence intensity was measured using excitation and emission wavelengths of 321 nm and 448 nm.

[4] = LNP with G534 sgRNA and Cas9 mRNA, sg:mRNA 1:2, experiment 109
[5] = LNP, sg:mRNA 1:1, N/P about 6, 50/9/38/3, Table 2, Experiments 2-20
[6] = LNP, sg:mRNA 1:2, N/P 6.0, 50/9/38/3, Table 4, Experiment 105
[7] = sg:mRNA 1:1, N/P about 6, amine lipid/DSPC/cholesterol/PEG-2k-DMG 50/9/38/3, Table 2, Experiments 2-20
[8] = sg:mRNA 1:2, N/P 6.0, 50/9/38/3, Table 4, Experiment 105
[9] = LNP, sg:mRNA 1:1, N/P 6.0, 50/9/38/3, Table 4, Experiments 101-104
[10] = sg:mRNA 1:1, N/P 6.0, 50/9/38/3, Table 4, Experiments 101-104
[11] = LNP, sg:mRNA 1:2, N/P about 6, 50/9/38/3, G650, Table 8, Experiment 108
[12] = sg:mRNA 1:2, N/P about 6, 50/9/38/3, G650 sgRNA, Table 8, Experiment 108
[13] = LNP, sg:mRNA 1:1.3, N/P about 6, 50/9/38/3, Table 2, Experiment 1
[14] = LNP, sg:mRNA 1:2, N/P about 6, 50/9/38/3, Table 6, Experiments 106-107

| SMILES | Number mean (nm) [1, 4] | PDI [1, 4] | Z-avg (nm) [1, 4] | Number mean (nm) [1, 5] | PDI [1, 5] | Z-avg (nm) [1, 5] | Number mean (nm) [1, 6] | PDI [1, 6] | Z-avg (nm) [1, 6] | % E (encapsulation efficiency) [2] | Encapsulation (%) [2, 7] | % E [2, 8] | pKa [3] | Number mean (nm) [1, 9] | PDI [1, 9] | Z-avg (nm) [1, 9] | % E [2, 10] | Number mean (nm) [1, 11] | PDI [1, 11] | Z-avg (nm) [1, 11] | further results |
| --- | --- | --- | --- | --- | --- | --- | --- | --- | --- | --- | --- | --- | --- | --- | --- | --- | --- | --- | --- | --- | --- |
| CCCCC/C=C\C/C=C\CCCCCCCC(=O)OCC(COC(=O)CCC(OCCCCCCCC)OCCCCCCCC)COC(=O)NCC1CCCN1CC (stereo not shown) [Compound 40, 3-((4,4-bis(octyloxy)butanoyl)oxy)-2-(((((1-ethylpyrrolidin-2-yl)methyl)carbamoyl)oxy)methyl)propyl (9Z,12Z)-octadeca-9,12-dienoate] | – | – | – | 56.73 nm | 0.056 | 74.12 nm | – | – | – | – | 98% | – | 7.33 | 66.92 nm | 0.014 | 83.69 nm | 95% | – | – | – | – |
| CCCCC/C=C\C/C=C\CCCCCCCC(=O)OCC(COC(=O)CC12CC3CC(CC(C3)C1)C2)COC(=O)OCCCN(CC)CC (stereo not shown) [Compound 107, 3-(2-((3 r,5 r, 7r)-adamantan-1-yl)acetoxy)-2-((((3-(diethylamino)propoxy)carbonyl)oxy)methyl)propyl (9Z,12Z)-octadeca-9,12-dienoate] | – | – | – | – | – | – | – | – | – | – | – | – | 6.43 | – | – | – | – | 65 nm | 0.07 | 84 nm | % E [2, 12]: 94% |
| CCCCC/C=C\C/C=C\CCCCCCCC(=O)OCC(COC(=O)CCC(OCCCCCCCC)OCCCCCCCC)COC(=O)OCC1CCCN(C)C1 (stereo not shown) [Compound 53, 3-((4,4-bis(octyloxy)butanoyl)oxy)-2-(((((1-methylpiperidin-3-yl)methoxy)carbonyl)oxy)methyl)propyl (9Z,12Z)-octadeca-9,12-dienoate] | – | – | – | 60.35 nm | 0.040 | 76.24 nm | – | – | – | – | 99% | – | 6.85 | 56.05 nm | 0.019 | 70.47 nm | 99% | – | – | – | – |
| CCCCC/C=C\C/C=C\CCCCCCCC(=O)OCC(COC(=O)CCC(OCCCCCCCC)OCCCCCCCC)COC(=O)OCCCN(CC)CC (stereo not shown) [Compound 1, 3-((4,4-bis(octyloxy)butanoyl)oxy)-2-((((3-(diethylamino)propoxy)carbonyl)oxy)methyl)propyl (9Z,12Z)-octadeca-9,12-dienoate, reference compound] | 73 nm | 0.01 | 88 nm | – | – | – | 73.15 nm | 0.033 | 88.60 nm | 98% | 96% and 99% and 98% and 97% | 99% | 6.4 | 69.51 nm and 62.86 nm and 64.97 nm and 63.19 nm | – | 84.93 nm and 79.83 nm and 82.71 nm and 79.18 nm | 98% and 99% and 97% | 70 nm | 0.03 | 86 nm | Number mean (nm) [1, 13]: 63.16 nm; PDI [1, 13]: 0.022; Z-avg (nm) [1, 13]: 77.85 nm; Number mean (nm) [1, 14]: 76 nm and 71 nm; Z-avg (nm) [1, 14]: 91 nm and 88 nm; Encapsulation (%) ([2]; sg:mRNA 1:1.3, N/P about 6, amine lipid/DSPC/cholesterol/PEG-2k-DMG 50/9/38/3, Table 2, Experiment 1): 97%; % E [2, 12]: 98%; % E ([2]; sg:mRNA 1:2, N/P about 6, 50/9/38/3, TTR sgRNA (SEQ ID NO: 4), Table 6, Experiments 106-107): 99% |

The next lines start with results.

| Number mean (nm) [1, 4] | PDI [1, 4] | Z-avg (nm) [1, 4] | Number mean (nm) [1, 5] | PDI [1, 5] | Z-avg (nm) [1, 5] | Number mean (nm) [1, 6] | PDI [1, 6] | Z-avg (nm) [1, 6] | % E (encapsulation efficiency) [2] | Encapsulation (%) [2, 7] | % E [2, 8] | pKa [3] | Number mean (nm) [1, 9] | PDI [1, 9] | Z-avg (nm) [1, 9] | % E [2, 10] | SMILES | Number mean (nm) [1, 11] | PDI [1, 11] | Z-avg (nm) [1, 11] | further results |
| --- | --- | --- | --- | --- | --- | --- | --- | --- | --- | --- | --- | --- | --- | --- | --- | --- | --- | --- | --- | --- | --- |
| 77 nm | 0.02 | 95 nm | 78.22 nm | 0.018 | 96.35 nm | 80.04 nm | 0.032 | 98.90 nm | 97% | 99% | 99% | 6.14 | – | – | – | – | CCCCCCCCCC(C)OC(=O)CCCCCCCC(=O)OCC(COC(=O)CCC(OCCCCCCCC)OCCCCCCCC)COC(=O)OCCCN(CC)CC (stereo not shown) [Compound 94, 1-(344,4-bis(octyloxy)butanoyl)oxy)-2-((((3-(diethylamino)propoxy)carbonyl)oxy)methyl)propyl) 9-(undecan-2-yl) nonanedioate] | – | – | – | – |
| 75 nm | 0.04 | 91 nm | 84.05 nm and 73.04 nm | – | 100.4 nm and 87.86 nm | 79.11 nm | 0.041 | 96.76 nm | 98% | 99% and 97% | 99% | 6.4 | 72.60 nm and 67.12 nm | 0.012 and 0.024 | 87.31 nm and 83.42 nm | 98% and 96% | CCCCCCCCCCOC(=O)CCCCCCCC(=O)OCC(COC(=O)CCC(OCCCCCCCC)OCCCCCCCC)COC(=O)OCCCN(CC)CC (stereo not shown) [Compound 59, 1-(3-((4,4-bis(octyloxy)butanoyl)oxy)-2-((((3-(diethylamino)propoxy)carbonyl)oxy)methyl)propyl) 9-decyl nonanedioate] | – | – | – | – |
